This passage reports IC50 results from patent US8778951B2, “Heteroaryl compounds and their uses” (Novartis AG, priority 2009, dated 2014).

The target of this test is Cdk9/cyclinT1 (Homo sapiens (Human), UniProt P50750). Briefly: Cdk9/CyclinT1 IMAP Protocol (fluorescence polarization kinase assay). The test is classed as biochemical. As to conditions: Table 2; generated using one of the two Cdk9/cyclinT1 assays (IMAP or Alpha Screen), not specified which; unit inferred. The gist of the method: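 Reaction used 4 nM Cdk9/cyclinT1, 100 nM 5TAMRA-cdk7tide peptide and 6 uM ATP in 100 mM Tris pH 7.2 with MgCl2, 0.01% Tween-20, 1 mM DTT and 2.5% DMSO, running 4.5 h. Phosphopeptide was captured by IMAP binding reagent for >1 h, then read by fluorescence polarization (ex 531/em 595 nm).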
Chain of Cdk9/cyclinT1 (P50750 whole entry): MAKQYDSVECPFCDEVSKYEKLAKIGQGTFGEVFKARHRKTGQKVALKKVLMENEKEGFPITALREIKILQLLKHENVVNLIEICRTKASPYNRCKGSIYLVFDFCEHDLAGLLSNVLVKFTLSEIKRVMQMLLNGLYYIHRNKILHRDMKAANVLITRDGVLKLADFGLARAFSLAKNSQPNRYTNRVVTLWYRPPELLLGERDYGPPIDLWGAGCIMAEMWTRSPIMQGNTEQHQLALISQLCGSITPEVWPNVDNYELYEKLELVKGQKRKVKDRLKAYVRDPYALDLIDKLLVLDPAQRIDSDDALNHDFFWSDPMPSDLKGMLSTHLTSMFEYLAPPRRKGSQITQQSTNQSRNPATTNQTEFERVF
Chain of Cdk9/cyclinT1 (O60563 whole entry partner): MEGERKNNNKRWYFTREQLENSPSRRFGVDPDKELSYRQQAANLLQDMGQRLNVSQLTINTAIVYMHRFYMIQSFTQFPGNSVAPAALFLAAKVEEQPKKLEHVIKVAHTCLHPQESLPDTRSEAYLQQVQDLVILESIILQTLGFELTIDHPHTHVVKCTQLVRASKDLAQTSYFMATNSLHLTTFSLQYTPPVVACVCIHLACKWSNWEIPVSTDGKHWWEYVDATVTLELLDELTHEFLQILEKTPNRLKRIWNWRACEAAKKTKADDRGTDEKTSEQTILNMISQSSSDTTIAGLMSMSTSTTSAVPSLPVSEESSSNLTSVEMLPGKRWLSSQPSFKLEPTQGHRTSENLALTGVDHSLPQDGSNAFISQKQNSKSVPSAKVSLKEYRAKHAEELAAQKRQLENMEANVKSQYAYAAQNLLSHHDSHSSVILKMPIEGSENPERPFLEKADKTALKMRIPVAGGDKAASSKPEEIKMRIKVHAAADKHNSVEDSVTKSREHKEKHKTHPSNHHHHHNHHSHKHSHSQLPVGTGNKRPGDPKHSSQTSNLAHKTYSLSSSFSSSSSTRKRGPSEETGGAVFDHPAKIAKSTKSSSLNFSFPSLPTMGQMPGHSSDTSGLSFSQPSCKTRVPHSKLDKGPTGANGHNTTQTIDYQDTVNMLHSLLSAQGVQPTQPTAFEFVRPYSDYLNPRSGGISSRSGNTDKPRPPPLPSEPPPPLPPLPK
Compound `Fc1cccc(CNc2cccc(-c3cc(N[C@@H]4CCCOC4)ncc3Cl)n2)c1` [Compound 148] yielded an IC50 of 15600 nM.

Take `N[C@H]1CC[C@@H](Nc2cc(-c3cccc(NCc4cccc(F)c4)n3)c(Cl)cn2)CC1` [Compound 139]: half-maximal inhibition (IC50) required 30.1 nM. This IC50 is about 520-fold lower than that of the compound before. Regarding `CCc1ncc(-c2cc(N[C@H]3CC[C@H](N)CC3)ncc2Cl)nc1NCC1CCOCC1` [Compound 241, trans-N^1-(5-chloro-4-(5-ethyl-6-((tetrahydro-2H-pyran-4-yl)methyl)aminopyrazin-2-yl)pyridin-2-yl)cyclohexane-1,4-diamine], the IC50 amounted to 61.8 nM. The compound `COCCN[C@H]1CC[C@H](Nc2cc(-c3ccc(F)c(NCC4(C#N)CCOCC4)n3)c(Cl)cn2)CC1` [Compound 339] returned an IC50 of 0.17 nM. `Cc1ncc(NCC2CCOCC2)nc1-c1cc(N[C@H]2CC[C@H](N)CC2)ncc1Cl` [Compound 233, trans-N1-(5-chloro-4-(3-methyl-6-((tetrahydro-2H-pyran-4-yl)methyl)aminopyrazin-2-yl)pyridin-2-yl)cyclohexane-1,4-diamine] yielded an IC50 of 7.95 nM. `CS(=O)(=O)CCN[C@H]1CC[C@H](Nc2cc(-c3cccc(NCc4cccc(F)c4)n3)c(Cl)cn2)CC1` [Compound 20, 5′-chloro-N6-(3-fluorobenzyl)-N2′-(trans-4-(2-(methylsulfonyl)ethylamino)cyclohexyl)-2,4′-bipyridine-2′,6-diamine] registered an IC50 of 7.95 nM. Regarding `Cc1cnc(N[C@H]2CC[C@H](N)CC2)cc1-c1cccc(NCc2cccc(F)c2)n1` [Compound 211, N2′-(trans-4-aminocyclohexyl)-N6-(3-fluorobenzyl)-5′-methyl-2,4′-bipyridine-2′,6-diamine], the IC50 amounted to 21 nM. In the case of `Fc1cccc(CNc2cccc(-c3cc(NCC4CCOCC4)ncc3Cl)n2)c1` [Compound 143], the IC50 worked out at 22.7 nM. Take `CN(CC1CCOCC1)c1cccc(-c2cc(N[C@H]3CC[C@H](N)CC3)ncc2Cl)n1` [Compound 108]: the concentration for half-maximal inhibition (IC50) was found to be 7.95 nM. Compared with the last compound, the IC50 is about 2.9-fold lower. For `NC[C@H]1CC[C@H](Nc2cc(-c3cccc(NCc4ccc(F)cc4)n3)c(Cl)cn2)CC1` [Compound 66] the value was 17.1 nM; for `CS(=O)(=O)N[C@H]1CC[C@H](Nc2cc(-c3cncc(NCC4CCOCC4)n3)c(Cl)cn2)CC1` [Compound 245], 53.4 nM. Compound `NCCCNc1cc(-c2cccc(NCc3cccc(F)c3)n2)c(Cl)cn1` [Compound 144] gave an IC50 of 15.8 nM.

The compound `O[C@H]1CC[C@H](Nc2cc(-c3cccc(NC4CCNCC4)n3)c(Cl)cn2)CC1` [Compound 8, trans-4-(5′-chloro-6-(piperidin-4-yl-amino)-2,4′-bipyridin-2′-yl-amino)cyclohexanol] showed an IC50 of 84.8 nM. `OCCN[C@H]1CC[C@H](Nc2cc(-c3nc(NCC4CCOCC4)ccc3Cl)c(Cl)cn2)CC1` [Compound 259, 2-(trans-4-(3,5′-dichloro-6-((tetrahydro-2H-pyran-4-yl)methyl)amino-2,4′-bipyridin-2′-yl-amino)cyclohexylamino)ethanol] showed an IC50 of 7.94 nM. As to `CNC[C@H]1CC[C@H](Nc2cc(-c3cccc(NCc4cccc(F)c4)n3)c(Cl)cn2)CC1` [Compound 22, 5′-chloro-N6-(3-fluorobenzyl)-N2′-(trans-4-((methylamino)methyl)cyclohexyl)-2,4′-bipyridine-2′,6-diamine], the midpoint of inhibition, the IC50, lay at 7.95 nM. This IC50 and that of the compound before are within 1.5-fold of each other. For `COC[C@@H](C)N[C@H]1CC[C@H](Nc2cc(-c3cccc(NCC4(C)CCS(=O)(=O)CC4)n3)c(Cl)cn2)CC1` [Compound 365], the IC50 amounted to 0.7 nM. Consider `CC(=O)N1CCC[C@@H](CNc2cccc(-c3cc(N[C@H]4CC[C@H](N)CC4)ncc3Cl)n2)C1` [Compound 217], for which half-maximal inhibition (IC50) required 37.3 nM.

Take `Fc1cccc(CNc2cccc(-c3cc(NCC4CCNCC4)ncc3Cl)n2)c1` [Compound 162]: inhibition was half-maximal at 14 nM (IC50).

Consider `Fc1cccc(CNc2cccc(-c3cc(NCCc4cccnc4)ncc3Cl)n2)c1` [Compound 175], for which the midpoint of inhibition, the IC50, lay at 24 nM. Regarding `Fc1cc(F)cc(CNc2cccc(-c3cc(N[C@@H]4CCCNC4)ncc3Cl)n2)c1` [Compound 92], the IC50 turned out to be 296 nM. In turn, `Fc1cccc(CNc2cccc(-c3cc(NCC[C@H]4CCCNC4)ncc3Cl)n2)c1` [Compound 165] had an IC50 of 7.9 nM. Compound `N[C@H]1CC[C@H](Nc2cc(-c3cccc(N[C@@H]4CC45CCOCC5)n3)c(Cl)cn2)CC1` [Compound 212] registered an IC50 of 54.6 nM.

In the case of `N[C@H]1CC[C@H](Nc2ncc(Cl)c(-c3cccc(NCC4CCCCC4)n3)n2)CC1` [Compound 3, trans-N1-(5-chloro-4-(6-(cyclohexylmethylamino)pyridin-2-yl)pyrimidin-2-yl)cyclohexane-1,4-diamine], 238 nM corresponded to half-maximal inhibition (IC50).

`COCCN[C@H]1CC[C@H](Nc2cc(-c3ccc(F)c(NCC4CCOCC4)n3)c(Cl)cn2)CC1` [Compound 314] yielded an IC50 of 1 nM. `N[C@H]1CC[C@H](Nc2cc(-c3nc(NCC4CCOCC4)cnc3Cl)ccn2)CC1` [Compound 232] showed an IC50 of 7.95 nM. On to `COC[C@@H](C)N[C@H]1CC[C@H](Nc2cc(-c3nc(NCC4CCCCO4)ccc3Cl)c(Cl)cn2)CC1` (stereo in doubt) [Compound 325, 3,5′-dichloro-N2′-(trans-4-((R)-1-methoxypropan-2-yl-amino)cyclohexyl)-N6-(((R)-tetrahydro-2H-pyran-2-yl)methyl)-2,4′-bipyridine-2′,6-diamine], for which the IC50 is 10 nM. Compound `N[C@H]1CC[C@H](Nc2cc(-c3cccc(NCc4ccc(OC(F)F)cc4)n3)c(Cl)cn2)CC1` [Compound 53] returned an IC50 of 11.1 nM. With `C[C@@H]1CC(CNc2cccc(-c3cc(N[C@H]4CC[C@H](N)CC4)ncc3Cl)n2)C[C@H](C)O1` (stereo partly drawn) [Compound 284, N2′-(trans-4-aminocyclohexyl)-5′-chloro-N6-(((2R,6S)-2,6-dimethyltetrahydro-2H-pyran-4-yl)methyl)-2,4′-bipyridine-2′,6-diamine], the IC50 amounted to 1 nM. Compound `CC1(CNc2nc(-c3cc(N[C@H]4CC[C@H](NC5CCS(=O)(=O)CC5)CC4)ncc3Cl)ccc2F)CCOCC1` [Compound 346] showed an IC50 of 1 nM. As for `CCN[C@H]1CC[C@H](Nc2cc(-c3cccc(NCC4(C#N)CCOCC4)n3)c(Cl)cn2)CC1` [Compound 360, 4-((5′-chloro-2′-((1r,4r)-4-(ethylamino)cyclohexylamino)-2,4′-bipyridin-6-ylamino)methyl)tetrahydro-2H-pyran-4-carbonitrile], the IC50 was found to be 0.28 nM. In turn, `CC(=O)N[C@H]1CC[C@H](Nc2cc(-c3cncc(NCC4CCOCC4)n3)c(Cl)cn2)CC1` [Compound 244, N-(trans-4-(5-chloro-4-(6-((tetrahydro-2H-pyran-4-yl)methyl)aminopyrazin-2-yl)pyridin-2-yl-amino)cyclohexyl)acetamide] had a concentration for half-maximal inhibition (IC50) of 79 nM. Turning to `O[C@H]1CC[C@H](Nc2cc(-c3cccc(NC[C@@H]4CCCNC4)n3)c(Cl)cn2)CC1` [Compound 123], the IC50 was found to be 42.8 nM. Turning to `N[C@H]1CC[C@H](Nc2cc(-c3cccc(NCc4cccnc4)n3)c(Cl)cn2)CC1` [Compound 26], the IC50 amounted to 16.3 nM. The compound `N[C@H]1CC[C@H](Nc2cc(-c3cccc(NCc4cc(F)ccc4F)n3)c(Cl)cn2)CC1` [Compound 39] returned a half-inhibitory concentration (IC50) of 8.9 nM. Compound `Fc1cc(F)cc(CNc2cccc(-c3cc(NC4CCNCC4)ncc3Cl)n2)c1` [Compound 71] showed an IC50 of 27.4 nM.

In general, IC50 refers to the midpoint of a concentration-inhibition curve. A high value points to weaker potency in that assay.
